One assay concerns iNKT cells in PBMC. As to the kind of experiment: iNKT frequency in peripheral blood during systemic treatment. The class given is in vivo, mouse. Particulars: PBMC 3 days after third i.v. injection. Here is the method: FIG. 3: iNKT expansion in blood during systemic treatment with αGalCer loaded recombinant CD1d molecules. Mice were bled after the third injection of either PBS (control) αGalCer (0.4 μg), αGalCer/CD1d-anti-Her2 fusion protein (Fusion, 40 μg), or αGalCer/sCD1d (sCD1d, 20 μg). NKT cells were stained in PBMCs using the CD1d-Tetramer-PE and anti CD3 FITC antibody. a representative dot blot of one mouse from each group. b graph representing several mice per group expressed as CD1d tetramer positive and CD3+ cells as percentage of total PBMC.
Increased frequency of iNKT cells during systemic treatment: normally iNKT cells are not detectable in mouse peripheral blood as shown on FIG. 3. In contrast, they became clearly detectable upon systemic treatment with recombinant αGalCer/CD1d molecules, whereas there was no change with αGalCer alone. FIG. 3a gives representative dot plots of FACS staining with CD1d-tetramer+anti-CD3 on PBMC 3 days after the third injection with either PBS, free αGalCer, αGalCer/CD1d-anti HER2, or αGalCer/sCD1d (five mice per group, i.v., injection every 3 days).

Assay [1] deals with splenocytes, CD11c+ CD40+ DC. Kind of assay: Mature DC (CD11c+ CD40+) in splenocyte cultures of OVA-immunized mice. Particulars: same cultures, following restimulation. The format is cell-based, mouse. On the procedure:
FIG. 8: αGalCer loaded sCD1d acts as a strong adjuvant for the expansion of antigen-specific T cells upon active immunization. a kinetics of expansion of H-2K^b/OVA specific CTLs. Mice were primed with 200 μg ovalbumin either as such (i.v.) or with MONTANIDE™ adjuvant (3:7 ratio, s.c.) or with 1 μg αGalCer or 20 μg αGalCer/sCD1d (i.v.). Mice were bled every 5-7 days and PBMC were stained with H-2K^b/oVA tetramer+anti-CD8. Results were expressed as tetramer+ and CD8+ […] as a percentage of total CD8+ T cells. Mice were boosted with OVA peptide (20 μg) on day 22 employing the same adjuvants and route of injection as for primary immunization. b Ten days later, mice were sacrificed and splenocytes were cultured another five days either with no stimuli or with the same stimuli and adjuvants as for the in vivo boost. Frequency of OVA specific T cells was measured as in a. c The presence of mature DC in the same cultures as in b was analyzed by surface staining with anti CD11c and anti CD40 antibodies.
Together with active OVA immunization: An adjuvant effect has previously been attributed to free αGalCer and its potential use in vaccination has been proposed (Silk, J. D., et al. J Clin Invest 114:1800-1811 (2004)). […]

In the case of `CCCCCCCCCCCCCCCCCCCCCCCCCC(=O)N[C@@H](CO[C@H]1O[C@H](CO)[C@H](O)[C@H](O)[C@H]1O)[C@H](O)[C@H](O)CCCCCCCCCCCCCC` [αGalCer, α-galactosylceramide, reference compound], the “Frequency of iNKT cells in peripheral blood” value in the assay on iNKT cells in PBMC is “no change”.

B1: αGalCer/sCD1d: soluble monomeric mouse β2m-CD1d, His-tagged, loaded with αGalCer (protein)
chain: IQKTPQIQVYSRHPPENGKPNILNCYVTQFHPPHIEIQMLKNGKKIPKVEMSDMSFSKDWSFYILAHTEFTPTETDTYACRVKHASMAEPKTVYWDRDMGGGGSGGSGSGGGSEAQQKNYTFRCLQMSSFANRSWSRTDSVVWLGDLQTHRWSNDSATISFTKPWSQGKLSNQQWEKLQHMFQVYRVSFTRDIQELVKMMSPKEDYPIEIQLSAGCEMYPGNASESFLHVAFQGKYVVRFWGTSWQTVPGAPSWLDLPIKVLNADQGTSATVQMLLNDTCPLFVRGLLEAGKSDLEKQEKPVAWLSSVPSSADGHRQLVCHVSGFYPKPVWVMWMRGDQEQQGTHRGDFLPNADETWYLQATLDVEAGEEAGLACRVKHSSLGGQDIILYWSSGSGGHHHHHH
Take B1: in assay [1], the “Frequency of mature DC (CD11c+CD40+)” value is “increased frequency of mature DC”.
